Measurements published in patent publication US10359430B2, “Selective near-infrared optical imaging of necrotic cells and simultaneous cell fixing and counter staining with metallacrown complexes” (THE REGENTS OF THE UNIVERSITY OF MICHIGAN, priority 2015, dated 2019).
Entries after “also recorded” stand apart in the source; their conditions may differ.

Columns and labels:
[1] = Photophysical parameters in OPTI-MEM media, cell supernatant and HeLa cells; format: physicochemical
Experimental: The Yb^3+[Zn(II)MCpyzHA] complexes were dissolved in OPTI-MEM® medium with 2% SVF (without cells) and were incorporated in HeLa cells, both with and without exposure to UV light. The results in are shown in FIG. 20, (A) (corrected and normalized excitation) and FIG. 20, (B) (corrected and normalized emission). […] The present inventors developed instrumentation in order to collect photophysical properties of MCs inside of cancer cells. They measured quantitative photophysical parameters (quantum yields and life times) inside of the cells with equipment which is usually adapted for measuring of (quantum yields and life times) in solids or in concentrated solutions.
The Yb^3+[Zn(II)MCpyzHA] complexes were collected together with cell supernatant (SN) and with HeLa cells treated with N-acetyl cysteine, both with and without exposure to UV light. For SN1 and cells1, incubation with NAC took place for 30 minutes, then the cells were washed, and incubation with Yb^3+[Zn(II)MCpyzHA] took place for 15 minutes. For SN2 and cells2, incubation with Yb^3+[Zn(II)MCpyzHA] took place for 15 minutes, and then NAC was added and incubation with NAC took place for 30 minutes. The results in are shown in FIGS. 20C (corrected and normalized excitation) and 20D (corrected and normalized emission). […]

HeLa cells [2] = test: Confocal microscopy of HeLa cells; format: cell-based, Human; settings: 150 μM, 15 minutes, UV light (377 nm) 8 minutes, further 1 hour; λex 458 nm, λem 499-799 nm
Description: Complexes were excited with Argon laser at 458 nm and emission signal was collected from 499 nm to 799 nm. During this experiment, a 63× Plan-Apochromat objective was used (2× zoom).

HeLa cells [3] = test: Cytotoxicity test with Alamar blue; format: cell-based, Human; settings: FIG. 6, text says 5 hours, figure legend 24 and 48 hours
Experimental: In order to determine if the LnZn16(pyz)16MC complexes (Ln^3+Zn(II)MCHAD are toxic for live cells, cytotoxicity tests with Alamar blue were performed.
Alamar blue is viability reagent which functions as a cell health indicator by using the reducing power of living cells to quantitatively measure the proliferation of different human and animal cell lines. This enables the cytotoxicity of different chemical complexes to be determined. The active ingredient of Alamar Blue is resazurin, which is non-toxic and cell permeable compound, and upon entering in the cells, it is reduced to highly fluorescent resorufin.
The cytotoxicity tests were performed with Alamar blue assay (Invitrogen, France). HeLa cells were seeded in 96-well plate at the density of 1*10^4 cells per well and cultured at 37° C. in 5% humidified CO2 atmosphere. After 24 hours of attachment, the cells were incubated with different concentrations of Yb^3+[Zn(II)MCpyzHA] in cell culture medium for 24 and 48 hours followed by incubation with Alamar blue (10% v/v) for 3 to 4 hours at 37° C. in 5% humidified CO2 atmosphere.
Fluorescence of Alamar blue was measured with plate reader (Victor 3V, Perkin Elmer, France), with excitation at 530 nm and emission at 590 nm, for cells incubated with Yb^3+[Zn(II)MCpyzHA] and for untreated cells (control).

HeLa cells [4] = test: NIR epifluorescence microscopy of HeLa cells treated with N-acetyl cysteine; format: cell-based, Human; settings: 150 μM complex 15 minutes
Experimental: Formation of extracellular vesicules is a result of cellular response on oxidative stress which indicates excessive production of ROS (Reactive oxygen species). In order to investigate if ROS are responsible for dual function of Yb^3+[Zn(II)MCpyzHA], HeLa cancer cells were treated with NAC (N-acetyl cysteine), which is a well known antioxidant that efficiently blocks production of reactive oxygen species (ROS).
Cells were seeded in a 8-well Lab Tek Chamber coverglass (Nunc, Dutsher S.A., Brumath, France) at a density of 6×10^4 cells/well and cultured at 37° C. in 5% humidified CO2 atmosphere.
After 24 hours, the cell culture media was removed. Some of the cells were washed twice with OPTI-MEM® media (room temperature), incubated with N-acetyl cysteine (NAC) for 15 minutes, washed twice with OPTI-MEM® media and incubated with 150 μM of Yb^3+[Zn(II)MCpyzHA] for 15 minutes.
After 24 hours, the cell culture media was removed. Some of the cells were washed twice with OPTI-MEM® media (room temperature), and incubated with 150 μM of Yb^3+[Zn(II)MCpyzHA] for 15 minutes. N-acetyl cysteine (NAC) was added, and the cells were incubated for another 30 minutes. The cells were washed twice with OPTI-MEM® media.

[5] = No UV NAC (SN1*): cell supernatant, NAC 30 minutes, washed, then complex 15 minutes
[6] = No UV NAC (SN2*): cell supernatant, complex 15 minutes, then NAC 30 minutes
[7] = No UV NAC (in cells1*): NAC 30 minutes, washed, then complex 15 minutes
[8] = No UV NAC (in cells2*): complex 15 minutes, then NAC 30 minutes
[9] = No UV: After 5 h of incubation with HeLa cells without illumination
[10] = UV NAC (SN2*): cell supernatant, complex 15 minutes, then NAC 30 minutes
[11] = UV NAC (in cells2*): complex 15 minutes, then NAC 30 minutes
[12] = UV: After 5 h of incubation with HeLa cells with UV illumination (during 8 min)

Quantum yield ([1]; In HeLa cells): 2.14(6) · 10^−2%
τ2 ([1]; In HeLa cells): 23.6(7) μs
τ2 contribution ([1]; In HeLa cells): 100%
Quantum yield [1, 5]: 1.08(1) · 10^−2%
τ1 [1, 5]: 7.27(2) μs
τ1 contribution [1, 5]: 91%
τ2 [1, 5]: 50(2) μs
τ2 contribution [1, 5]: 9%
Quantum yield [1, 6]: 1.00(4) · 10^−2%
τ1 [1, 6]: 6.72(3) μs
τ1 contribution [1, 6]: 88%
τ2 [1, 6]: 28.4(1) μs
τ2 contribution [1, 6]: 12%
τ1 [1, 7]: 7.5(4) μs
τ1 contribution [1, 7]: 6%
τ2 [1, 7]: 22.9(1) μs
τ2 contribution [1, 7]: 94%
τ1 [1, 8]: 7.3(1) μs
τ1 contribution [1, 8]: 7%
τ2 [1, 8]: 23.6(2) μs
τ2 contribution [1, 8]: 93%
Quantum yield [1, 9]: 1.52(3) · 10^−2%
τ1 [1, 9]: 6.47(4) μs
τ1 contribution [1, 9]: 75%
τ2 [1, 9]: 21.6(8) μs
τ2 contribution [1, 9]: 25%
Quantum yield ([1]; OptiMEM): 1.25(1) · 10^−2%
τ1 ([1]; OptiMEM): 6.45(5) μs
τ1 contribution ([1]; OptiMEM): 89%
τ2 ([1]; OptiMEM): 24(1) μs
τ2 contribution ([1]; OptiMEM): 11%
Quantum yield ([1]; OptiMEM-UV 1 h 30 min): 2.05(5) · 10^−2%
τ1 ([1]; OptiMEM-UV 1 h 30 min): 7.03(3) μs
τ1 contribution ([1]; OptiMEM-UV 1 h 30 min): 61%
τ2 ([1]; OptiMEM-UV 1 h 30 min): 21.5(1) μs
τ2 contribution ([1]; OptiMEM-UV 1 h 30 min): 39%
Quantum yield [1, 10]: 1.06(5) · 10^−2%
τ1 [1, 10]: 6.80(9) μs
τ1 contribution [1, 10]: 75%
τ2 [1, 10]: 23(1) μs
τ2 contribution [1, 10]: 25%
τ1 [1, 11]: 8.7(5) μs
τ1 contribution [1, 11]: 9%
τ2 [1, 11]: 23.2(1) μs
τ2 contribution [1, 11]: 91%
Quantum yield [1, 12]: 1.64(5) · 10^−2%
τ1 [1, 12]: 6.51(8) μs
τ1 contribution [1, 12]: 65%
τ2 [1, 12]: 21(1) μs
τ2 contribution [1, 12]: 35%
Contribution of the long lifetime inside of HeLa cells ([1]; all experimental conditions): more than 90%
Compound: O=C([N-][O-])c1cnccn1.O=C([N-][O-])c1cnccn1.O=C([N-][O-])c1cnccn1.O=C([N-][O-])c1cnccn1.O=C([N-][O-])c1cnccn1.O=C([N-][O-])c1cnccn1.O=C([N-][O-])c1cnccn1.O=C([N-][O-])c1cnccn1.O=C([N-][O-])c1cnccn1.O=C([N-][O-])c1cnccn1.O=C([N-][O-])c1cnccn1.O=C([N-][O-])c1cnccn1.O=C([N-][O-])c1cnccn1.O=C([N-][O-])c1cnccn1.O=C([N-][O-])c1cnccn1.O=C([N-][O-])c1cnccn1.O=S(=O)([O-])C(F)(F)F.O=S(=O)([O-])C(F)(F)F.O=S(=O)([O-])C(F)(F)F.[Yb+3].[Zn+2].[Zn+2].[Zn+2].[Zn+2].[Zn+2].[Zn+2].[Zn+2].[Zn+2].[Zn+2].[Zn+2].[Zn+2].[Zn+2].[Zn+2].[Zn+2].[Zn+2].[Zn+2].c1ccncc1.c1ccncc1.c1ccncc1.c1ccncc1.c1ccncc1.c1ccncc1.c1ccncc1.c1ccncc1 [Yb^3+[Zn(II)MCpyzHA]]
Integrity of the MC ([1]; cell culture media and cells, different experimental conditions): stays intact in cell culture media and in the cells
Change of luminescent properties in media, cell supernatant or HeLa cells ([1]; with/without exposure to UV light): did not change in the cells; also recorded: did not change in cell supernatant or inside of the HeLa cells
Intracellular location (confocal, visible ligand emission) (HeLa cells [2]): specifically located in nucleus as well as in cytoplasm
Cells remained alive (HeLa cells [3]; 45 μM): approximately 70%
Concentration from which the complex started to be significantly toxic (HeLa cells [3]): ≥ 45 µM
Internalization inside the cells, complex Incubation First (HeLa cells [4]; then NAC 30 minutes): do not show internalization
NIR signal in cells, NAC Incubation First (HeLa cells [4]; NAC 15 minutes, wash, exposure time 400 ms): very good signal in NIR
